“And” between values parts separate entries of the source, which are not always exact repeats. Equal entries are not always repeated. Toxic doses and inconclusive results are not listed. Cut-off read from the data, not from the text of the source: active = T/C of 150% or more; inactive = T/C below 125%.
Tested on: L1210 leukemia ip in BDF1 mice, survival T/C
Experiment: NCI In Vivo Anticancer Drug Screen. Data for tumor model L1210 Leukemia (intraperitoneal) in B6D2F1 (BDF1) mice
Conditions: endpoint: mean survival time, higher = longer survival
In short: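 Tumor was transplanted into mice, which were then dosed with test compound or vehicle alone. Survival was recorded for each group, and the treated figure was expressed relative to the control figure.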

[1] = dose: 100.0 mg/kg/injection, schedule: Q01DX009 (ip), vehicle: Klucel (hydroxypropylcellulose) (HPC)
[2] = dose: 100.0 mg/kg/injection, schedule: Q04DX003 (ip), vehicle: Klucel (hydroxypropylcellulose) (HPC)
[3] = dose: 200.0 mg/kg/injection, schedule: Q01DX009 (ip), vehicle: Klucel (hydroxypropylcellulose) (HPC)
[4] = dose: 200.0 mg/kg/injection, schedule: Q04DX003 (ip), vehicle: Klucel (hydroxypropylcellulose) (HPC)
[5] = dose: 400.0 mg/kg/injection, schedule: Q01DX009 (ip), vehicle: Klucel (hydroxypropylcellulose) (HPC)
[6] = dose: 400.0 mg/kg/injection, schedule: Q04DX003 (ip), vehicle: Klucel (hydroxypropylcellulose) (HPC)
[7] = dose: 100.0 mg/kg/injection, schedule: Q04DX003 (ip), vehicle: saline

Measured: T/C

Cc1ccc(Nc2ccc([N+](=O)[O-])cc2[N+](=O)[O-])cc1C
inactive: dose: 50.0 mg/kg/injection, schedule: Q04DX003 (ip), vehicle: Klucel (hydroxypropylcellulose) (HPC) 102 % of control | [1] 108 % of control | [2] 102 % of control | [3] 90 % of control | [4] 98 % of control and 104 % of control | [5] 97 % of control | [6] 89 % of control

O=C(O)C/C=C/C(=O)NCc1cccnc1
inactive: dose: 100.0 mg/kg/injection, schedule: Q01DX001 (ip), vehicle: saline 97 % of control | dose: 200.0 mg/kg/injection, schedule: Q01DX001 (ip), vehicle: saline 97 % of control | dose: 400.0 mg/kg/injection, schedule: Q01DX001 (ip), vehicle: saline 88 % of control

O=S(=O)(Nc1cc(S(=O)(=O)c2ccccc2)c(NS(=O)(=O)c2ccccc2)cc1Cl)c1ccccc1
inactive: [2] 88 % of control | [3] 92 % of control | [4] 88 % of control | [5] 87 % of control

O=C(COc1ccc(Cl)c(Cl)c1)NCc1ccc[n+](Cc2ccc(S(=O)(=O)F)c(Cl)c2)c1
inactive: dose: 25.0 mg/kg/injection, schedule: Q04DX003 (ip), vehicle: saline 106 % of control | dose: 50.0 mg/kg/injection, schedule: Q04DX003 (ip), vehicle: saline 106 % of control | [7] 92 % of control and 98 % of control

O=S(=O)(O)c1ccc(Br)cc1
inactive: dose: 100.0 mg/kg/injection, schedule: Q01DX009 (ip), vehicle: saline 116 % of control | [7] 98 % of control | dose: 200.0 mg/kg/injection, schedule: Q01DX009 (ip), vehicle: saline 108 % of control | dose: 200.0 mg/kg/injection, schedule: Q04DX003 (ip), vehicle: saline 103 % of control | dose: 400.0 mg/kg/injection, schedule: Q01DX009 (ip), vehicle: saline 108 % of control | dose: 400.0 mg/kg/injection, schedule: Q04DX003 (ip), vehicle: saline 104 % of control

CCCCOC(=O)COc1cc(Cl)c(Cl)cc1Cl
inactive: dose: 100.0 mg/kg/injection, schedule: Q04DX002 (ip), vehicle: saline with Tween-80 93 % of control | dose: 200.0 mg/kg/injection, schedule: Q04DX002 (ip), vehicle: saline with Tween-80 104 % of control

CCOc1cc(C(F)(F)F)nc2c3c(cc(OC)c12)CCCN3CC
inactive: dose: 100.0 mg/kg/injection, schedule: Q04DX003 (ip), vehicle: saline with Tween-80 102 % of control | dose: 200.0 mg/kg/injection, schedule: Q04DX003 (ip), vehicle: saline with Tween-80 100 % of control | dose: 400.0 mg/kg/injection, schedule: Q04DX003 (ip), vehicle: saline with Tween-80 97 % of control

CCN1C(=O)/C(=C\C=C2\SCCN2CI)OC1=S
inactive: dose: 177.6 mg/kg/injection, schedule: Q01DX001 (ip), vehicle: other 98 % of control and 89 % of control | dose: 266.8 mg/kg/injection, schedule: Q01DX001 (ip), vehicle: other 96 % of control | dose: 400.0 mg/kg/injection, schedule: Q01DX001 (ip), vehicle: other 96 % of control and 89 % of control | dose: 600.0 mg/kg/injection, schedule: Q01DX001 (ip), vehicle: other 103 % of control and 87 % of control

CCOP(=O)(Nc1c(Cl)cc2c(c1Cl)Cc1cc([N+](=O)[O-])ccc1-2)OCC
inactive: dose: 50.0 mg/kg/injection, schedule: Q01DX001 (ip), vehicle: carboxymethylcellulose (CMC) 103 % of control | dose: 100.0 mg/kg/injection, schedule: Q01DX001 (ip), vehicle: carboxymethylcellulose (CMC) 100 % of control | dose: 200.0 mg/kg/injection, schedule: Q01DX001 (ip), vehicle: carboxymethylcellulose (CMC) 100 % of control | dose: 400.0 mg/kg/injection, schedule: Q01DX001 (ip), vehicle: carboxymethylcellulose (CMC) 103 % of control

CN(N=O)c1ccc(N(C)N=O)cc1
inactive: dose: 50.0 mg/kg/injection, schedule: Q01DX009 (ip), vehicle: Klucel (hydroxypropylcellulose) (HPC) 100 % of control | [1] 97 % of control | [2] 96 % of control | [3] 102 % of control | [4] 93 % of control | [5] 92 % of control | [6] 96 % of control

CN(C)c1ccc(C=C(C#N)C#N)cc1
inactive: [1] 100 % of control | [2] 96 % of control and 98 % of control | [3] 105 % of control | [4] 97 % of control and 102 % of control | [5] 94 % of control | [6] 93 % of control and 92 % of control

Reference: PubChem BioAssay AID248 (DTP/NCI, 2004)
